Like-named read-outs stand apart in the source and are kept apart here. Square brackets hold non-standard residues; d marks the D form. Peptide text beside a SMILES is read from it. * marks the point of attachment. Hexanoyl = CCCCCC(=O)*; Ahx = NCCCCCC(=O)O

One assay concerns Prp-TDP43^A315T mice. Type of assay: in vivo. On the procedure: Extranuclear accumulation of TDP-43 protein is a pathological hallmark of a number of neurological diseases. […] Male Prp-TDP43^A315T mice (N=10 mice per group) at 3 weeks of age were administered daily treatments of test compounds. Compound A19 was administered via subcutaneous injection, and Compound 5a and Compound 6a were administered via oral gavage. After 2 months of treatment, plasma samples were collected for cytokine quantification. […] Plasma IL-6 and TNF-α cytokine expression levels were determined using the ELISA method. The submandibular vein was punctured with a lancet and a blood drop was collected directly on a microtube containing EDTA as anticoagulant. Samples were centrifuged for 15 minutes at 1000×g at 4° C. within 20 minutes of collection. 20 μl of plasma supernatant was stored at −20° C. before ELISA analysis.
Plasma was diluted at 1:10 in sterile PBS, and IL-6 and TNF-α quantification was performed in duplicate for each animal using 10 μl of sample per well in 96-well plates using the ELISA method (IL-6: Signa-Aldrich Cat #RAB0308, TNF-α: Sigma-Aldrich Cat #RAB0477). Statistical analysis was carried out by 2-way ANOVA with Dunnett's multiple comparisons post-test with compound-treated samples compared to vehicle-treated samples.

For a further assay, the system named is BV2 microglia. The assay is described as follows: Quantigene gene expression panel in LPS-stimulated BV2 microglia. Type of assay: cell-based. Details: key to Significant reduction in target transcript abundance compared to LPS-stimulated BV2 lysates: NLRP3 / Significant reduction in target transcript abundance compared to LPS-stimulated BV2 lysates: IL-1β / Significant reduction in target transcript abundance compared to LPS-stimulated BV2 lysates: IL-6 / Significant reduction in target transcript abundance compared to LPS-stimulated BV2 lysates: iNOS: “NS” indicates a non-significant reduction indicated gene expression compared to LPS-treated cultures; “+” indicates a p value < 0.05; “++” indicates a p value < 0.01; “+++” indicates a p value < 0.001; “+++” indicates a p value < 0.0005 in Dunnett's multiple comparison. On the procedure: Changes in gene expression in BV2 cells in response to stimulation with LPS and whether or not these gene expression changes are influenced by treatment with Compound A19-AM was also examined. Inflammatory activation of BV2 microglia was stimulated by pre-treatment with LPS for 45 minutes followed by the addition of test compound for 23.5 hours. Cell cultures were then lysed and processed for expression profiling via bead-based transcript quantification using the Quantigene multiplex gene expression assay (ThermoFisher) and a custom array of target transcripts relevant to inflammatory activation. Expression of a major component of the inflammasome (NLRP3), cytokines (TNF-α, IL-1β, and IL-6), and inducible nitric oxide synthase (iNOS) were assessed. Expression data were quantified as fold change compared to unstimulated cell cultures. Statistical analysis consisted of one-way ANOVA with Dunnett's multiple comparisons post-test compared to LPS-stimulated lysates. Gene expression data is represented in Table 14. Expression of all inflammatory transcript targets were induced by treatment with LPS.

Setting [1] is: 2 months of treatment, doses as in the value.

Regarding `CCC(C)CN1CC2N(Cc3ccc(C(F)(F)F)cc3)CCC(=O)N2[C@@H](C)C1=O` (stereo partly drawn) [Compound 5a], in the assay with Prp-TDP43^A315T mice (2 mg/kg PO daily), the “Significant decrease in plasma cytokine expression after 2 months of treatment: IL-6” value (shortened to “Significant decrease … IL-6”) is given as “++++ (++++ = p < 0.0001)” and the “Significant decrease in plasma cytokine expression after 2 months of treatment: TNF-α” value (shortened to “Significant decrease … TNF-α”) is reported as “++++ (++++ = p < 0.0001)”. In the assay on Prp-TDP43^A315T mice (10 mg/kg PO daily), the “Significant decrease … IL-6” value was “++++ (++++ = p < 0.0001)” and the “Significant decrease … TNF-α” value was “++++ (++++ = p < 0.0001)”. For the same compound, in the assay with Prp-TDP43^A315T mice (20 mg/kg PO daily), the “Significant decrease … IL-6” value is “++++ (++++ = p < 0.0001)” and the “Significant decrease … TNF-α” value is recorded as “++++ (++++ = p < 0.0001)”. Besides, in the assay with Prp-TDP43^A315T mice (setting [1]), the “Plasma IL-6 expression (result in words)” value was “significantly reduced both cytokine levels at doses of 2, 10, and 20 mg/kg”; the “Plasma TNF-α expression (result in words)” value was “significantly reduced both cytokine levels at doses of 2, 10, and 20 mg/kg”.

Regarding `CCCCCC(=O)N[C@@H](Cc1ccc(O)cc1)C(=O)N[C@H](C(=O)NCCCCCC(N)=O)[C@@H](C)CC` [Compound A19 active metabolite, dihexa] (Hexanoyl-Tyr-Ile-[Ahx]-NH2), in the assay on BV2 microglia (concentrations as in the value), the “Expression of IL-1β (result in words)” value is “reduced at treatment concentrations of 100 nM and 1 μM”; the “Expression of IL-6 (result in words)” value is “reduced at by treatment with 1 μM”; the “Expression of NLRP3 (result in words)” value was “significantly reduced by treatment with 100 nM and 1 μM”; the “Expression of TNF-α (result in words)” value is recorded as “reduced by treatment with A19-AM at all tested concentrations”. Besides, the “Expression of iNOS (result in words)” value in the assay with BV2 microglia (concentrations as in the value) was “significantly reduced by treatment with A19-AM at concentrations of 100 nM and 1 μM”. In the assay on BV2 microglia (dose 1 pM), the “Significant reduction in target transcript abundance compared to LPS-stimulated BV2 lysates: IL-1β” value (“Significant reduction … IL-1β” below) is “NS”, the “Significant reduction in target transcript abundance compared to LPS-stimulated BV2 lysates: IL-6” value (shortened to “Significant reduction … IL-6”) is “NS”, the “Significant reduction in target transcript abundance compared to LPS-stimulated BV2 lysates: NLRP3” value (“Significant reduction … NLRP3” below) was “NS” and the “Significant reduction in target transcript abundance compared to LPS-stimulated BV2 lysates: iNOS” value (shortened to “Significant reduction … iNOS”) is on record as “NS”. For the same compound, in the assay on BV2 microglia (dose 10 pM), the “Significant reduction … IL-1β” value is on record as “NS”, the “Significant reduction … IL-6” value is “NS”, the “Significant reduction … NLRP3” value is reported as “NS” and the “Significant reduction … iNOS” value was “NS”. For the same compound, in the assay on BV2 microglia (dose 100 pM), the “Significant reduction … IL-1β” value is “NS”, the “Significant reduction … IL-6” value is recorded as “NS”, the “Significant reduction … NLRP3” value is recorded as “NS” and the “Significant reduction … iNOS” value is listed as “NS”. In the assay with BV2 microglia (dose 100 nM), the “Significant reduction … IL-1β” value was “+ (“+” indicates a p value < 0.05)”, the “Significant reduction … IL-6” value is recorded as “NS”, the “Significant reduction … NLRP3” value is on record as “++ (“++” indicates a p value < 0.01)” and the “Significant reduction … iNOS” value is reported as “++ (“++” indicates a p value < 0.01)”. Also, in the assay with BV2 microglia (dose 1 μM), the “Significant reduction … IL-1β” value is given as “++ (“++” indicates a p value < 0.01)”, the “Significant reduction … IL-6” value is listed as “+ (“+” indicates a p value < 0.05)”, the “Significant reduction … NLRP3” value was “+ (“+” indicates a p value < 0.05)” and the “Significant reduction … iNOS” value is reported as “++ (“++” indicates a p value < 0.01)”.
